Values quoted from earlier work as cited in patent US5047532A, “Isolation and elucidation of Cephalostatins 5 and 6” (Arizona Board of Regents, acting on behalf of Arizona State …, priority 1989, dated 1991).

Test system: murine P388 lymphocytic leukemia (PS cell line)
Conditions: Pettit et al, J. Chem. Soc. Chem. Commun. 85 (1988)

## C[C@@H]1[C@]2(O[C@H]3C=C4[C@@H]5CC[C@H]6Cc7nc8c(nc7C[C@]6(C)[C@H]5C[C@@H](O)[C@]4(C)[C@]31O)C[C@@H]1CC[C@H]3C4=CC[C@@H]5[C@H](C)[C@@]6(OC[C@]45C(=O)C[C@@H]3[C@@]1(C)C8)OC(C)(C)C[C@H]6O)O[C@](C)(CO)C[C@H]2O [Cephalostatin 1]
  murine P388 lymphocytic leukemia (PS system) cell growth inhibition: cell growth inhibitor
